Entries after “also recorded” stand apart in the source; their conditions may differ.
What was measured:
[1] = test system: SH-SY5Y cells; assay: Glycolysis flux (ECAR), Seahorse Extracellular Flux analyzer; format: cell-based, human
Method: (§1) In these experiments, oligomycin, FCCP, rotenone/antimycin, and 2-deoxyglucose were used to determine the proportion of oxygen that was consumed as part of the mitochondrial “leak” and “ATP production”; maximum and spare flux rates were also determined using standard established flux analysis protocols. […] FIG. 1D schematically summarizes this pathway.
(§2) For these measurements, oligomycin, FCCP, and rotenone/antimycin were used to determine mitochondrial respiration leak rates, the maximum oxygen consumption rate, and the non-mitochondrial oxygen consumption rate. […] The dose-response was logarithmic over a test range of 0.1 to 2 mM (FIG. 4). FIG. 3A illustrates respiration peaking at ˜40% enhancement, which is the maximum possible when mitochondria are chemically uncoupled.

[2] = test system: SH-SY5Y cells; assay: Respiration / oxygen consumption rate (OCR), Seahorse Extracellular Flux analyzer; format: cell-based, human; conditions: for ATP-linked Respiration / Change in OCR post injection (1) / Maximum OCR / Post-Oligomycin (Leak Rate) OCR: average of three experiments; for Effect on respiration (OCR), in words: SH-SY5Y cultured neuronal cells; for Increase of cellular respiration and/or glycolysis, near maximum possible levels: preliminary testing, FIGS. 2 and 3
Method: as §1, §2

[3] = in solution, especially in the presence of amino acids; cited from earlier work
[4] = cited from earlier work
[5] = mice, cited from earlier work

In the case of CC(O)COC(=O)CC(=O)C(=O)OCC(C)O (centres unmarked) [OAA(PG)2, Bis(2-hydroxypropyl) 2-oxosuccinate], the “Effect on glycolysis (ECAR)” value ([1]; 1, 2 and 5 mM OAA(PG)2, SH-SY5Y, FIG. 3B) is reported as “without concomitantly creating a statistical reduction in the glycolysis flux; also recorded: insignificant effect on glycolysis”, the “ATP-linked Respiration” value ([2]; 0.1 mM, SH-SY5Y) is reported as 50.1% and the “Change in OCR post injection (1)” value ([2]; 0.1 mM, SH-SY5Y) is reported as 101.7%. For the same compound, the “Maximum OCR” value ([2]; 0.1 mM, SH-SY5Y) was 98.92%, the “Post-Oligomycin (Leak Rate) OCR” value ([2]; 0.1 mM, SH-SY5Y) was 51.58% and the “ATP-linked Respiration” value ([2]; 0.25 mM, SH-SY5Y) was 50.66%. The “Change in OCR post injection (1)” value ([2]; 0.25 mM, SH-SY5Y) was 101.1%, the “Maximum OCR” value ([2]; 0.25 mM, SH-SY5Y) was 93.08% and the “Post-Oligomycin (Leak Rate) OCR” value ([2]; 0.25 mM, SH-SY5Y) was 50.46%. The “ATP-linked Respiration” value ([2]; 0.5 mM, SH-SY5Y) was 44.78%, the “Change in OCR post injection (1)” value ([2]; 0.5 mM, SH-SY5Y) was 103.9% and the “Maximum OCR” value ([2]; 0.5 mM, SH-SY5Y) was 93.62%. The “Post-Oligomycin (Leak Rate) OCR” value ([2]; 0.5 mM, SH-SY5Y) was 59.15%, the “ATP-linked Respiration” value ([2]; 1 mM, SH-SY5Y) was 52.7% and the “Change in OCR post injection (1)” value ([2]; 1 mM, SH-SY5Y) was 106.5%. The “Maximum OCR” value ([2]; 1 mM, SH-SY5Y) was 81.46%, the “Post-Oligomycin (Leak Rate) OCR” value ([2]; 1 mM, SH-SY5Y) was 53.8% and the “ATP-linked Respiration” value ([2]; 2 mM, SH-SY5Y) was 68.89%. The “Change in OCR post injection (1)” value ([2]; 2 mM, SH-SY5Y) was 119.8%, the “Maximum OCR” value ([2]; 2 mM, SH-SY5Y) was 91.73% and the “Post-Oligomycin (Leak Rate) OCR” value ([2]; 2 mM, SH-SY5Y) was 50.86%. For the same compound, the “Effect on respiration (OCR), in words” value [2] was “enhance respiration”, the “Peak enhancement of respiration” value ([2]; SH-SY5Y, FIG. 3A, maximum possible when mitochondria are chemically uncoupled) was roughly 40% and the “Increase of cellular respiration and/or glycolysis, near maximum possible levels” value [2] was roughly 40%. For the same compound, the “Shape of dose-response of respiration” value ([2]; test range of 0.1 to 2 mM, FIG. 4) was “logarithmic”.

In the case of CC(CC(=O)O)OC(=O)CC(=O)C(=O)OC(C)CC(=O)O (centres unmarked) [OAA(BHB)2, 3,3′-((2-oxosuccinyl)bis(oxy))dibutyric acid], the “Increase in cell respiration” value ([2]; 1-mM dose, SH-SY5Y, FIG. 2, averages of three experiments) is reported as roughly 30%, the “Effect on respiration (OCR), in words” value [2] is reported as “increases respiration” and the “Increase of cellular respiration and/or glycolysis, near maximum possible levels” value [2] is reported as roughly 40%.

For CC(O)C(=O)O (centres unmarked) [lactate, reference compound], the “Effect on respiration, in words” value ([2]; experiments not further specified) was “effectively promote respiration”.

For O=C(O)CC(=O)C(=O)O [OAA, 2-oxosuccinic acid], the “Increase in glycolysis flux capacity” value ([1]; 2 mM OAA, SH-SY5Y, FIG. 1B) was “about 50%”, the “Effect on glycolysis flux” value ([1]; 2 mM, SH-SY5Y, FIG. 1B) was “enhances rather than impedes glycolysis flux” and the “Increase in cellular respiration” value ([2]; OAA treatment, SH-SY5Y, FIG. 1C) was “about 50%”. The “Effect on respiration (OCR), in words” value [2] was “increase aspects of mitochondrial respiration flux”, the “Decarboxylation rate into pyruvate” value [3] was roughly 1 %/min and the Safety profile ([4]; AD clinical study, doses up to 1 gram BID) was “excellent safety profile”. For the same compound, the Plasma level increase ([4]; PK study, 100 mg BID, AD participants) was “did not reveal a reliable plasma level increase”, the Brain changes ([5]; 1 g/kg/day and 2 g/kg/day) was “induced unequivocal brain changes” and the “Activity of NFκB transcription factor (neuroinflammation)” value ([5]; intraperitoneal (IP) injection) was “lessened activity”. For the same compound, the Hippocampal neurogenesis ([5]; intraperitoneal (IP) injection) was “increased hippocampal neurogenesis”, the “Insulin pathway signaling in brain” value ([5]; intraperitoneal (IP) injection) was “enhanced insulin pathway signaling” and the “Mitochondrial biogenesis parameters in brain” value ([5]; intraperitoneal (IP) injection) was “promoted mitochondrial biogenesis parameters”.

Source: patent publication US11952337B2, “Bioenergetically active esters for health and disease” (University of Kansas, priority 2018, dated 2024)
